In the assay the test system is mouse Tas2rs. Put plainly: Calcium imaging screening of 34 mouse bitter taste receptors. The conditions noted are these: screening of 34 mouse receptors; listed as CDCA. The format is cell-based. The protocol: This set of bile acids was chosen because of their commercial availability in high purities, their diversity within the class of bile acids and their previous detection and quantitation in human blood. Stock solutions were prepared in DMSO. […] Maximal applied concentrations are due to solubility problems or receptor-independent artefacts during measurement at high bile acid concentrations (Table 1, Table 2)[12],[58]. […]
Cells were loaded using the calcium-sensitive fluorescent dye Fluo-4-AM (Abcam, Cambridge, Great Britain) in the presence of 2.5 mM probenecid (Sigma-Aldrich, Steinheim, Germany) the day after transfection[13],[41]. […] For automated agonist application and measurement of fluorescence changes, a FLIPR^TETRA device (Molecular Devices, San José, United States) was used. […]
Measured data were negative control corrected by subtracting the signal of the mock-transfected cells and exported to Microsoft Excel using the FLIPR software ScreenWorks 4.2. In Microsoft Excel software, standardization of maximum fluorescence intensities to the basal fluorescence and normalization to the buffer-only control was done to calculate the relative fluorescence changes (ΔF/F). […]

The source of these data is PMC10247784, “Physiological activation of human and mouse bitter taste receptors by bile acids” (Communications Biology, 2023).

“Also recorded” adds a separate entry of the source.

Consider `C[C@H](CCC(=O)O)[C@H]1CC[C@H]2[C@@H]3[C@H](O)C[C@@H]4C[C@H](O)CC[C@]4(C)[C@H]3CC[C@]12C` [Chenodeoxycholic Acid, chenodeoxycholic acid], for which the “Response of mouse Tas2rs” value is reported as “did not activate any; also recorded: did not obtain any response”.
